From PubChem BioAssay AID1963867 (Molecular Pharmacology Branch, DTP, NCI, 2024)
Values joined by “and” are separate entries in the source; they are usually repeats but may differ in a detail not shown here. Equal values may be shown once.

Tested on: KRAS-mutant PDC tumor spheroid with HUVEC/MSC, viability
Assay: Anticancer human tumor 327498-153-R-J2-PDC patient-derived uterine carcinosarcoma cell line growth inhibition [KRAS2]
Conditions: for viability, T/C: stronger effect = lower value
Method in brief: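 KRAS-mutant tumor cells were grown as spheroids with HUVEC endothelial cells and human MSCs as stroma. Targeted agents were tested alone and with KRAS pathway inhibitors. Doses started at or near clinical Cmax, or 10 microM, descending half-log.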

[1] = curve of first compound, second compound 0.1 µM
[2] = curve of first compound, second compound 0.316 µM
[3] = curve of first compound, second compound 1 µM
[4] = curve of first compound, second compound 3.16 µM
[5] = curve of first compound, second compound 10 µM
[6] = second compound 0.1 µM, first compound 0.0316 µM
[7] = second compound 0.316 µM, first compound 0.0316 µM
[8] = second compound 1 µM, first compound 0.0316 µM
[9] = second compound 3.16 µM, first compound 0.0316 µM
[10] = second compound 10 µM, first compound 0.0316 µM
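Also: spheroids exposed to agents for seven days before reading.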
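For viability, T/C in this document: 100% = DMSO vehicle wells so lower means fewer viable cells.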

COc1cc2nccc(Oc3ccc(NC(=O)C4(C(=O)Nc5ccc(F)cc5)CC4)cc3)c2cc1OC + C=CC(=O)N1CCN(c2nc(=O)n(-c3c(C)ccnc3C(C)C)c3nc(-c4c(O)cccc4F)c(F)cc23)C(C)C1
IC50 [1]: 1350 nM
IC50 [2]: 1150 nM
IC50 [3]: 1070 nM
IC50 [4]: 1030 nM
IC50 [5]: < 31.6 nM
viability, T/C [6]: 55.8%
viability, T/C (second compound 0.1 µM, first compound 0.1 µM): 63.5%
viability, T/C (second compound 0.1 µM, first compound 0.316 µM): 60.1%
viability, T/C (second compound 0.1 µM, first compound 1 µM): 59.6%
viability, T/C (second compound 0.1 µM, first compound 3.16 µM): 22.6%
viability, T/C (second compound 0.1 µM, first compound 10 µM): 1.82%
viability, T/C [7]: 56.8%
viability, T/C (second compound 0.316 µM, first compound 0.1 µM): 59.5%
viability, T/C (second compound 0.316 µM, first compound 0.316 µM): 59.9%
viability, T/C (second compound 0.316 µM, first compound 1 µM): 54.5%
viability, T/C (second compound 0.316 µM, first compound 3.16 µM): 16.5%
viability, T/C (second compound 0.316 µM, first compound 10 µM): 1.34%
viability, T/C [8]: 49.1%
viability, T/C (second compound 1 µM, first compound 0.1 µM): 52.4%
viability, T/C (second compound 1 µM, first compound 0.316 µM): 53.7%
viability, T/C (second compound 1 µM, first compound 1 µM): 54%
viability, T/C (second compound 1 µM, first compound 3.16 µM): 16%
viability, T/C (second compound 1 µM, first compound 10 µM): 1.1%
viability, T/C [9]: 51.4%
viability, T/C (second compound 3.16 µM, first compound 0.1 µM): 49.7%
viability, T/C (second compound 3.16 µM, first compound 0.316 µM): 54.8%
viability, T/C (second compound 3.16 µM, first compound 1 µM): 50.9%
viability, T/C (second compound 3.16 µM, first compound 3.16 µM): 15.2%
viability, T/C (second compound 3.16 µM, first compound 10 µM): 0.82%
viability, T/C [10]: 36%
viability, T/C (second compound 10 µM, first compound 0.1 µM): 37.5%
viability, T/C (second compound 10 µM, first compound 0.316 µM): 39.9%
viability, T/C (second compound 10 µM, first compound 1 µM): 34%
viability, T/C (second compound 10 µM, first compound 3.16 µM): 8.7%
viability, T/C (second compound 10 µM, first compound 10 µM): 0.79%

CC1OCC2(CCN(c3cnc(Sc4ccnc(N)c4Cl)c(N)n3)CC2)C1N (centres undefined)
viability, T/C (compound 0.0316 µM): 87.3% and 88.9% and 86.3%
viability, T/C (compound 0.1 µM): 75.4% [middle of 19 runs]
viability, T/C (compound 0.316 µM): 59.2% [middle of 19 runs]
viability, T/C (compound 10 µM): 31.2% [middle of 19 runs]
IC50 (compound alone, run of 07/19/2021): 544 nM [middle of 5 runs]
IC50 (compound alone, run of 07/26/2021): 499 nM [middle of 6 runs]
IC50 (curve of compound): 1.05 µM [middle of 5 runs]

CC(C)n1nc(-c2ccc3oc(N)nc3c2)c2c(N)ncnc21
viability, T/C (compound 0.000316 µM): 99.8% [middle of 5 runs]
viability, T/C (compound 0.001 µM): 92.1% [middle of 5 runs]
viability, T/C (compound 0.00316 µM): 77.7% [middle of 5 runs]
viability, T/C (compound 0.01 µM): 49.9% [middle of 5 runs]
viability, T/C (compound 0.0316 µM): 16% [middle of 5 runs]
viability, T/C (compound 0.1 µM): 9.59% [middle of 5 runs]
IC50 (curve of compound): 9.11 nM [middle of 5 runs]

CC(=O)Nc1cccc(-n2c(=O)n(C3CC3)c(=O)c3c(Nc4ccc(I)cc4F)n(C)c(=O)c(C)c32)c1 + CNCc1ccccc1-c1csc(C(C)Nc2nc(C)nc3cc(OC)c(OC)cc23)c1
IC50 [1]: 4.34 nM
IC50 [2]: 4.68 nM
IC50 [3]: 2.35 nM
IC50 [4]: < 0.1 nM
IC50 [5]: < 0.1 nM
viability, T/C (second compound 0.1 µM, first compound 0.0001 µM): 84%
viability, T/C (second compound 0.1 µM, first compound 0.000316 µM): 67%
viability, T/C (second compound 0.1 µM, first compound 0.001 µM): 61.8%
viability, T/C (second compound 0.1 µM, first compound 0.00316 µM): 56.1%
viability, T/C (second compound 0.1 µM, first compound 0.01 µM): 43.9%
viability, T/C [6]: 29.6%
viability, T/C (second compound 0.316 µM, first compound 0.0001 µM): 71.6%
viability, T/C (second compound 0.316 µM, first compound 0.000316 µM): 67.8%
viability, T/C (second compound 0.316 µM, first compound 0.001 µM): 58.4%
viability, T/C (second compound 0.316 µM, first compound 0.00316 µM): 51.3%
viability, T/C (second compound 0.316 µM, first compound 0.01 µM): 48.5%
viability, T/C [7]: 27%
viability, T/C (second compound 1 µM, first compound 0.0001 µM): 70.9%
viability, T/C (second compound 1 µM, first compound 0.000316 µM): 60.8%
viability, T/C (second compound 1 µM, first compound 0.001 µM): 53.9%
viability, T/C (second compound 1 µM, first compound 0.00316 µM): 49.3%
viability, T/C (second compound 1 µM, first compound 0.01 µM): 41.9%
viability, T/C [8]: 23.6%
viability, T/C (second compound 3.16 µM, first compound 0.0001 µM): 37.2%
viability, T/C (second compound 3.16 µM, first compound 0.000316 µM): 38.7%
viability, T/C (second compound 3.16 µM, first compound 0.001 µM): 22.7%
viability, T/C (second compound 3.16 µM, first compound 0.00316 µM): 0.12%
viability, T/C (second compound 3.16 µM, first compound 0.01 µM): 5.68%
viability, T/C [9]: 2.54%
viability, T/C (second compound 10 µM, first compound 0.0001 µM): 0.18%
viability, T/C (second compound 10 µM, first compound 0.000316 µM): 0.87%
viability, T/C (second compound 10 µM, first compound 0.001 µM): 0.14%
viability, T/C (second compound 10 µM, first compound 0.00316 µM): 0.14%
viability, T/C (second compound 10 µM, first compound 0.01 µM): 0.15%
viability, T/C [10]: 0.21%
